Assay results as given in patent publication EP4477653A1 (Perha Pharmaceuticals, priority 2023, dated 2024).

Molecular target: T1, human recombinant A3AR (expressed in HEK-293 cells) (Homo sapiens, UniProt P0DMS8)
T1 construct: host or cells: HEK-293 cells
T1 sequence (P0DMS8 1-318): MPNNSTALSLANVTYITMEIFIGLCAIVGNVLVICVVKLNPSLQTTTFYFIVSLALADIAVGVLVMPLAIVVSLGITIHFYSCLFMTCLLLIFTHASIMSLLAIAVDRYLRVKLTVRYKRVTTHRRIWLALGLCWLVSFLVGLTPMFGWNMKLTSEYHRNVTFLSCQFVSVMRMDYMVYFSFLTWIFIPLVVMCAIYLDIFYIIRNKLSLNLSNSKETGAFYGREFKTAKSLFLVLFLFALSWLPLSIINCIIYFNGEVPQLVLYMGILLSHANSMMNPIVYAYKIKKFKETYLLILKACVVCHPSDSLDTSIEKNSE
Test: Adenosine receptors antagonism assay (Eurofins), [125I]-AB-MECA radioligand competition
Format: binding
Details: [125I]-AB-MECA 0.15 nM, r.t., 120 min; IC50 from dose-response curves; read-out: Potency Class A3AR
Method: Assays were carried out at r.t. for 120 min. Compounds were initially tested at three concentrations (0.01, 0.1, 1 µM). […] IC50 values, which is the concentration causing a half-maximal inhibition of control specific binding, and Hill coefficients (nH) were determined by non-linear regression analysis of the competition curves generated with mean replicate values using Hill equation curve fitting. The inhibition constants (Ki) were calculated using the Cheng Prusoff equation.

Row | Compound | IC50
1 | CC(C)c1nnc2c(NCc3ccc(-c4ccncc4)cc3)cc(N[C@H](CO)[C@@H](C)O)nn12 [compound 108, (2R,3R)-2-[[3-isopropyl-8-[[4-(4-pyridyl)phenyl]methylamino]-[1,2,4]triazolo[4,3-b]pyridazin-6-yl]amino]butane-1,3-diol] | 0.1 to 1 µM
2 | COCCCNc1cc(NCCCOC)c2nnc(-c3ccccc3)n2n1 [compound 109, N6,N8-bis(3-methoxypropyl)-3-phenyl-[1,2,4]triazolo[4,3-b]pyridazine-6,8-diamine] | 0.1 to 1 µM
3 | COCCCNc1cc(NCCCOC)c2nnc(C3CC3)n2n1 [compound 110, 3-cyclopropyl-N6,N8-bis(3-methoxypropyl)-[1,2,4]triazolo[4,3-b]pyridazine-6,8-diamine] | 0.01 to 0.1 µM
4 | COCCCNc1cc(NCCCOC)c2nnc(C(F)(F)F)n2n1 [compound 111, N6,N8-bis(3-methoxypropyl)-3-(trifluoromethyl)-[1,2,4]triazolo[4,3-b]pyridazine-6,8-diamine] | 0.01 to 0.1 µM
5 | COCCNc1cc(NCCOC)c2nnc(C(C)C)n2n1 [compound 112, 3-isopropyl-N6,N8-bis(2-methoxyethyl)-[1,2,4]triazolo[4,3-b]pyridazine-6,8-diamine] | 0.1 to 1 µM
6 | CC[C@H](CO)Nc1cc(N[C@H](CC)CO)c2nnc(C(C)C)n2n1 [compound 113, (2R)-2-[[6-[[(1R)-1-(hydroxymethyl)propyl]amino]-3-isopropyl-[1,2,4]triazolo[4,3-b]pyridazin-8-yl]amino]butan-1-ol] | 0.1 to 1 µM
7 | CCC(CC)Nc1cc(NC(CC)CC)c2nnc(C(C)C)n2n1 [compound 114, N6,N8-bis(1-ethylpropyl)-3-isopropyl-[1,2,4]triazolo[4,3-b]pyridazine-6,8-diamine] | 0.001 to 0.01 µM
8 | CC[C@H](CO)Nc1nn2c(C(C)C)nnc2c(NCc2ccccc2)c1C [compound 115, (2R)-2-[[8-(benzylamino)-3-isopropyl-7-methyl-[1,2,4]triazolo[4,3-b]pyridazin-6-yl]amino]butan-1-ol] | 0.1 to 1 µM
9 | CNc1cc(NCc2ccc(Br)cc2)c2nnc(C(C)C)n2n1 [compound 116, N8-[(4-bromophenyl)methyl]-3-isopropyl-N6-methyl-[1,2,4]triazolo[4,3-b]pyridazine-6,8-diamine] | 0.1 to 1 µM
10 | CCC(CC)CNc1cc(Nc2cccnn2)c2nnc(C(C)C)n2n1 [compound 147, N6-(2-ethylbutyl)-3-isopropyl-N8-(pyridazin-3-yl)-[1,2,4]triazolo[4,3-b]pyridazine-6,8-diamine] | < 0.001 µM
11 | CCC(CC)Nc1cc(Nc2cccnn2)c2nnc(C(C)C)n2n1 [compound 148, 3-isopropyl-N6-(pentan-3-yl)-N8-(pyridazin-3-yl)-[1,2,4]triazolo[4,3-b]pyridazine-6,8-diamine] | < 0.001 µM
12 | CCC(CC)Nc1cc(Nc2ccnnc2)c2nnc(C(C)C)n2n1 [compound 149, 3-isopropyl-N6-(pentan-3-yl)-N8-(pyridazin-4-yl)-[1,2,4]triazolo[4,3-b]pyridazine-6,8-diamine] | 0.001 to 0.01 µM
13 | CCC(CC)Nc1cc(Nc2ccncn2)c2nnc(C(C)C)n2n1 [compound 150, 3-isopropyl-N6-(pentan-3-yl)-N8-(pyrimidin-4-yl)-[1,2,4]triazolo[4,3-b]pyridazine-6,8-diamine] | < 0.001 µM
14 | CCC(CC)Nc1cc(Nc2cncnc2)c2nnc(C(C)C)n2n1 [compound 151, 3-isopropyl-N6-(pentan-3-yl)-N8-(pyrimidin-5-yl)-[1,2,4]triazolo[4,3-b]pyridazine-6,8-diamine] | < 0.001 µM
15 | CCC(CC)Nc1cc(Nc2ncccn2)c2nnc(C(C)C)n2n1 [compound 152, 3-isopropyl-N6-(pentan-3-yl)-N8-(pyrimidin-2-yl)-[1,2,4]triazolo[4,3-b]pyridazine-6,8-diamine] | 0.01 to 0.1 µM
16 | CCC(CC)Nc1cc(Nc2cnccn2)c2nnc(C(C)C)n2n1 [compound 153, 3-isopropyl-N6-(pentan-3-yl)-N8-(pyrazin-2-yl)-[1,2,4]triazolo[4,3-b]pyridazine-6,8-diamine] | < 0.001 µM
17 | CCC(CC)Nc1cc(Nc2cccc(OC)n2)c2nnc(C(C)C)n2n1 [compound 154, 3-isopropyl-N8-(6-methoxypyridin-2-yl)-N6-(pentan-3-yl)-[1,2,4]triazolo[4,3-b]pyridazine-6,8-diamine] | < 0.001 µM
18 | CCC(CC)Nc1cc(Nc2ccc(OC)cn2)c2nnc(C(C)C)n2n1 [compound 155, 3-isopropyl-N8-(5-methoxypyridin-2-yl)-N6-(pentan-3-yl)-[1,2,4]triazolo[4,3-b]pyridazine-6,8-diamine] | < 0.001 µM
19 | CCC(CC)Nc1cc(Nc2cc(OC)ccn2)c2nnc(C(C)C)n2n1 [compound 156, 3-isopropyl-N8-(4-methoxypyridin-2-yl)-N6-(pentan-3-yl)-[1,2,4]triazolo[4,3-b]pyridazine-6,8-diamine] | 0.001 to 0.01 µM
20 | CCC(CC)Nc1cc(Nc2ncccc2OC)c2nnc(C(C)C)n2n1 [compound 157, 3-isopropyl-N8-(3-methoxypyridin-2-yl)-N6-(pentan-3-yl)-[1,2,4]triazolo[4,3-b]pyridazine-6,8-diamine] | 0.01 to 0.1 µM
21 | CCC(CC)Nc1cc(Nc2cccnc2OC)c2nnc(C(C)C)n2n1 [compound 158, 3-isopropyl-N8-(2-methoxypyridin-3-yl)-N6-(pentan-3-yl)-[1,2,4]triazolo[4,3-b]pyridazine-6,8-diamine] | < 0.001 µM
22 | CCC(CC)Nc1cc(Nc2ccc(OC)nc2)c2nnc(C(C)C)n2n1 [compound 159, 3-isopropyl-N8-(6-methoxypyridin-3-yl)-N6-(pentan-3-yl)-[1,2,4]triazolo[4,3-b]pyridazine-6,8-diamine] | < 0.001 µM
23 | CCC(CC)Nc1cc(Nc2cncc(OC)c2)c2nnc(C(C)C)n2n1 [compound 160, 3-isopropyl-N8-(5-methoxypyridin-3-yl)-N6-(pentan-3-yl)-[1,2,4]triazolo[4,3-b]pyridazine-6,8-diamine] | 0.001 to 0.01 µM
24 | CCC(CC)Nc1cc(Nc2cc(OC)cnn2)c2nnc(C(C)C)n2n1 [compound 162, 3-isopropyl-N8-(5-methoxypyridazin-3-yl)-N6-(pentan-3-yl)-[1,2,4]triazolo[4,3-b]pyridazine-6,8-diamine] | < 0.001 µM
25 | CC[C@H](CO)Nc1cc(Nc2ccccn2)c2nnc(C(C)C)n2n1 [compound 163, (2R)-2-[[3-isopropyl-8-(2-pyridylamino)-[1,2,4]triazolo[4,3-b]pyridazin-6-yl]amino]butan-1-ol] | 0.01 to 0.1 µM
26 | CCC(CC)CNc1cc(NCCc2ccccn2)c2nnc(C(C)C)n2n1 [compound 164, N6-(2-ethylbutyl)-3-isopropyl-N8-[2-(2-pyridyl)ethyl]-[1,2,4]triazolo[4,3-b]pyridazine-6,8-diamine] | < 0.001 µM
27 | CC(C)c1nnc2c(NCCc3ccccn3)cc(NC3CCCC3)nn12 [compound 165, N6-cyclopentyl-3-isopropyl-N8-[2-(2-pyridyl)ethyl]-[1,2,4]triazolo[4,3-b]pyridazine-6,8-diamine] | 0.001 to 0.01 µM
28 | CCC(CC)CNc1cc(NCCc2cccnc2)c2nnc(C(C)C)n2n1 [compound 166, N6-(2-ethylbutyl)-3-isopropyl-N8-[2-(3-pyridyl)ethyl]-[1,2,4]triazolo[4,3-b]pyridazine-6,8-diamine] | 0.001 to 0.01 µM
29 | CCC(CC)CNc1cc(NCC(CC)CC)c2nnc(C(C)C)n2n1 [compound 167, N6,N8-bis(2-ethylbutyl)-3-isopropyl-[1,2,4]triazolo[4,3-b]pyridazine-6,8-diamine] | 0.001 to 0.01 µM
